Measured values taken from US10227312B2, “Glucosylceramide synthase inhibitors for the treatment of diseases” (BIOMARIN PHARMACEUTICAL INC., priority 2015, dated 2019).

target: glucosylceramide synthase (GCS) (Canis lupus familiaris, UniProt A0A8I3MXG6); experiment: GCS Enzymatic Assay (MDCK lysates); assay type: biochemical, canine; conditions: MDCK cell lysate, C6-NBD-Ceramide, 37° C. for 1 hour, LC/MS; read-out: Assay 1 (Enzyme Assay; MDCK lysates) IC50
Experimental: Madin-Darby canine kidney (MDCK) cell lysate was prepared using M-PER Mammalian Protein Extraction Reagent (Thermal Scientific) in the presence of a protease inhibitor cocktail (Roche). Protein concentration was determined using BCA assay kit (Pierce). […] 0.1% DMSO was used as mock treatment or control. The reaction was terminated by adding 100 μL acetonitrile solution and subjected to LC/MS analysis.
The quantitative analysis of NBD-Ceramide and glucosylceramide was performed on a Shimadzu ultra-fast liquid chromatography (Shimadzu, Japan) coupled with API 4000 triple quadrupole mass spectrometer (Applied Biosystems, Concord, Ontario, Canada). Sample separation was conducted on a Waters Xbridge™ BEH130 C18, 100 mm×4.6 mm i.d, 3.5 μm (Milford, Mass., USA). The mobile phase consisted of water and acetonitrile supplemented with 0.1% formic acid (v/v). The flow rate was 1.0 mL/min. The initial mobile phase was 20% acetonitrile and was ramped in a linear fashion to 50% acetonitrile in 0.4 min. From 0.4 to 1.5 min, the gradient was ramped to 98% acetonitrile, and then was held at […] until 8.0 min. Acetonitrile was reset to 20% in 1.5 min, and maintained until 10.0 min. The total run time was 10.0 min. The MS/MS detection was performed in ESI positive mode. […] The cell lysate was diluted with equal volume of acetonitrile. Aliquots of 50 μL diluted samples were added to 1.5 mL tubes, and 100 μL of acetonitrile containing internal standard (100 ng/mL tolbutamide) were added for protein precipitation. The mixture were vortexed and then centrifuged at 13000 rpm for 10 min. 70 μL of supernatant were mixed with 140 μL of H2O and the final solution were injected for LC/MS/MS analysis and IC50's and/or percent inhibitions calculated.

glucosylceramide synthase (GCS), sequence (A0A8I3MXG6 1-394): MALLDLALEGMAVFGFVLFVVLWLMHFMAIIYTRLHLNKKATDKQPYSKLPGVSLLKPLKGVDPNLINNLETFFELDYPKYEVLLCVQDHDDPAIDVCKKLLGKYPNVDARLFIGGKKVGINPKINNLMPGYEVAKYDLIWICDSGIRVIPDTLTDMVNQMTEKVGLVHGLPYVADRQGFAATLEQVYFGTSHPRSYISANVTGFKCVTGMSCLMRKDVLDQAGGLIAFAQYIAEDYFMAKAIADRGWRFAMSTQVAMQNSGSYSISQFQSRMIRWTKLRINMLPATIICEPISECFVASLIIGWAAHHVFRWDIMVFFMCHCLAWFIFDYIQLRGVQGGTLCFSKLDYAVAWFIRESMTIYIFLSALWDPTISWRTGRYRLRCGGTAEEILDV

| Structure (SMILES) | IC50 |
| --- | --- |
| O=C(N[C@H](CN1CCCC1)[C@H](O)c1ccc(OC2CC2)c(Cl)c1)C1=NOCc2c1sc1cc(Cl)ccc21 [Example 13, 7-chloro-N-((1R,2R)-1-(3-chloro-4-cyclopropoxyphenyl)-1-hydroxy-3-(pyrrolidin-1-yl)propan-2-yl)-1H-benzo[4,5]thieno[2,3-d][1,2]oxazine-4-carboxamide] | 10 to 100 nM |
| O=C(N[C@H](CN1CCC1)[C@H](O)c1ccc(OC2CC2)c(F)c1)C1=NOCc2c1sc1cc(Cl)ccc21 [Example 15, N-((1R,2R)-3-(azetidin-1-yl)-1-(4-cyclopropoxy-3-fluorophenyl)-1-hydroxypropan-2-yl)-7-chloro-1H-benzo[4,5]thieno[2,3-d][1,2]oxazine-4-carboxamide] | 100 to 1000 nM |
| O=C(N[C@H](CN1CCC1)[C@H](O)c1ccc(OC2CC2)c(Cl)c1)C1=NOCc2c1sc1cc(Cl)ccc21 [Example 16, N-((1R,2R)-3-(azetidin-1-yl)-1-(3-chloro-4-cyclopropoxyphenyl)-1-hydroxypropan-2-yl)-7-chloro-1H-benzo[4,5]thieno[2,3-d][1,2]oxazine-4-carboxamide] | 100 to 1000 nM |
| O=C(N[C@H](CN1CCC1)[C@H](O)c1ccc(OC2CC2)cc1)C1=NCCc2cc(-c3ccc(F)cc3)ccc21 [Example 40, N-((1R,2R)-3-(azetidin-1-yl)-1-(4-cyclopropoxyphenyl)-1-hydroxypropan-2-yl)-6-(4-fluorophenyl)-3,4-dihydroisoquinoline-1-carboxamide] | 10 to 100 nM |
| O=C(N[C@H](CN1CCCC1)[C@H](O)c1ccc(OC2CC2)c(Cl)c1)C1OCCc2c1sc1cc(Cl)ccc21 (stereo partly drawn) [Example 43, 7-chloro-N-((1R,2R)-1-(3-chloro-4-cyclopropoxyphenyl)-1-hydroxy-3-(pyrrolidin-1-yl)propan-2-yl)-3,4-dihydro-1H-benzo[4,5]thieno[2,3-c]pyran-1-carboxamide] | 100 to 1000 nM |

Other lines, results leading:

| IC50 | Structure (SMILES) |
| --- | --- |
| 100 to 1000 nM | CC1(C)ON=C(C(=O)N[C@H](CN2CCCC2)[C@H](O)c2ccc(OC3CC3)c(Cl)c2)c2ccc(-c3ccc(F)cc3)cc21 [Example 23, N-((1R,2R)-1-(3-chloro-4-cyclopropoxyphenyl)-1-hydroxy-3-(pyrrolidin-1-yl)propan-2-yl)-7-(4-fluorophenyl)-1,1-dimethyl-1H-benzo[d][1,2]oxazine-4-carboxamide] |
| 100 to 1000 nM | CC1(C)Cc2cc(-c3ccc(F)cc3)ccc2C(C(=O)N[C@H](CN2CCCC2)[C@H](O)c2ccc(OC3CC3)c(Cl)c2)=N1 [Example 41, N-((1R,2R)-1-(3-chloro-4-cyclopropoxyphenyl)-1-hydroxy-3-(pyrrolidin-1-yl)propan-2-yl)-6-(4-fluorophenyl)-3,3-dimethyl-3,4-dihydroisoquinoline-1-carboxamide] |
| 100 to 1000 nM | O=C(N[C@H](CN1CCCC1)[C@H](O)c1ccc(OC2CC2)c(Cl)c1)C1OCCc2cc(-c3ccc(F)cc3)ccc21 (stereo partly drawn) [Example 42, N-((1R,2R)-1-(3-chloro-4-cyclopropoxyphenyl)-1-hydroxy-3-(pyrrolidin-1-yl)propan-2-yl)-6-(4-fluorophenyl)isochroman-1-carboxamide] |
